These results are taken from patent US4801534A, “Water soluble zanthylium derivative substrates” (Coulter Electronics, Inc., priority 1987, dated 1989).

Common to all, as to format: biochemical
Assay [1] deals with T1, Purified human alpha-thrombin (Homo sapiens, UniProt P00734).
T1 construct: Purified human alpha-thrombin; purchased Dr. John Fenton, N.Y. State Dept. of Health
In words: Spectrophotometric assay of thrombin with (Pyro-Pro-Arg)2-Rhodamine 110. The conditions noted are these: substrate 78 ug/mL, 37° C., pH 8.0. How it is done:
Dose response curves were determined for three different concentrations of thrombin by measuring absorbance increases at 468 nm and 496 nm. Working thrombin dilutions were prepared as follows: Purified human alpha-thrombin, Dr. John Fenton, N.Y. State Dept. of Health, was diluted to 1.04 U/mL, 0.52 U/mL and 0.25 U/mL in 0.05M HEPES, pH 8.0, with 0.25M NaCl and maintained at 4° C. The substrate, (Pyro-Pro-Arg)2 -Rhodamine 110, was dissolved to 78 ug/mL in 0.20M HEPES, pH 8.0, with 0.3M KCl. Disposable acrylic cuvettes with 1 cm light path, Centaur Sciences, Inc. were used. A one mL aliquot of substrate was pipetted into a cuvette and warmed to 37° C. in a heating block. A one mL sample of a working thrombin dilution was added to the cuvette. After mixing the thrombin and substrate, absorbances at 468 nm and 496 nm were determined for 30 seconds with a Hewlett-Packard Model 8450A spectrophotometer. The increased absorbances over the timed intervals were: […]

The next assay deals with T2, Thrombin (Homo sapiens, UniProt P00734).
T2 construct: Thrombin reaction rates were determined with the water soluble substrate
In words: Thrombin reaction rates, spectrophotometric, change in absorbance at 496 nm. As to conditions: 37° C., 0.10M ACES pH 7.0, 0.05M KCl.

In a further assay the test system is coagulation factor VIII. In words: Fluorescent coagulation factor VIII assay based on APTT, substrate detects thrombin generation. How it is done: (§1) Fluorescent assays for coagulation factors VIII and IX, based on the activated partial thromboplastin time (APTT) assay, were performed with the substrate (Sar-Pro-Arg)2 -Rhodamine 110. The synthetic substrate was used to detect thrombin generation, substituting for the natural substrate fibrinogen present in both human and animal plasmas. Standard calibration curves were constructed with normal plasma, Thromboscreen™ from Curtin Matheson Scientific, which was used to correct factor VIII and IX deficient plasmas, George King Biomedical. The APTT reagent contained purified soybean phospholipids and ellagic acid activator, Dade Diagnostics. […] A Turner model 430 spectrofluorometer with a temperature controlled sample cell holder (37° C.) was used to make the kinetic fluorescent measurements. Excitation and emission wavelengths were set at 468 nm and 525 nm, respectively. Glass test tubes were used to perform the plasma activations and disposable acrylic cuvettes, Centaur Sciences, Inc., were used for the fluorescent measurements.
(§2) A 100 uL aliquot of 0.85% saline or normal plasma diluted in saline was added to a test tube followed by the sequential addition of 100 uL of factor deficient plasma and 100 uL of the APTT reagent. The test tube was incubated in a heating block at 37° C. for 2 minutes, at which time 100 uL of 25 mM CaCl2 was added and the incubation was continued for an additional 30 seconds. The incubation mixture was transferred to a cuvette containing 2.0 mL of the substrate solution prewarmed to 37° C. and the fluorescent rate measured. Linear dose response curves were obtained for factors VIII and IX between 1% and 100% of normal: […]

The test system of a further assay is coagulation factor IX. Kind of assay: Fluorescent coagulation factor IX assay based on APTT, substrate detects thrombin generation. The method, then: as §1, §2
[2] abbreviates: substrate 80 micromolar, 15% ethanol for the Cbz substrate.
Where [3] appears, read: Factor level 1 % normal, plasma dilution 1:250.
The mark [4] stands for this setting: Factor level 10 % normal, plasma dilution 1:25.
[5] abbreviates: Factor level 100 % normal, plasma dilution 1:2.5.
The mark [6] stands for this setting: Factor level <1 % normal (no plasma dilution), ex 468 nm, em 525 nm, quinine sulfate = 1.0.

“(H-L-Pyro-Pro-Arg)2 -Rhodamine 110 [(Pyro-Pro-Arg)2 -Rhodamine 110]”: the “Absorbance, 0-30 seconds, 468 nm” value in assay [1] (Thrombin 0.26 U/mL) is on record as 0.0461; in assay [1] (Thrombin 0.52 U/mL), 0.0912; in assay [1] (Thrombin 1.04 U/mL), 0.1766. In addition, the figures for the “Absorbance, 0-30 seconds, 496 nm” value in assay [1] (Thrombin 0.26 U/mL), in assay [1] (Thrombin 0.52 U/mL) and in assay [1] (Thrombin 1.04 U/mL) were 0.0462, 0.0860 and 0.1671, respectively.
For “(Cbz-L-Pro-Arg)2 -Rhodamine 110 [(Cbz-Pro-Arg)2 -Rhodamine 110, reference compound]”, the “Change In Absorbance, 496 nm/Unit Thrombin/mL” value on Thrombin (setting [2]) is listed as 0.122.
“(H-Sar-Pro-Arg)2 -Rhodamine 110 [(Sar-Pro-Arg)2 -Rhodamine 110]”: the “Change In Absorbance, 496 nm/Unit Thrombin/mL” value at Thrombin (setting [2]) was found to be 1.700; at Thrombin (substrate 800 micromolar), 2.872. Further, the “Relative Fluorescence, Factor VIII” value is recorded as 0.121 in the assay with coagulation factor VIII (setting [3]), 0.148 in the assay on coagulation factor VIII (setting [4]), 0.333 in the assay with coagulation factor VIII (setting [5]) and 0.119 in the assay on coagulation factor VIII (setting [6]). For the same substance, the “Relative Fluorescence, Factor IX” value came to 0.127 in the assay on coagulation factor IX (setting [3]), 0.154 in the assay with coagulation factor IX (setting [4]), 0.333 with coagulation factor IX (setting [5]) and 0.121 in the assay on coagulation factor IX (setting [6]).
